{"source": "patent US20030225044A1", "about": "“Method to increase serum levels of vitamins in animals including humans” (priority 2002, published 2003)", "key": {"[1]": {"experiment": "Serum Vitamin E after nasal administration or drench (Example VI)", "type": "in vivo, beef steers", "procedure": "(§1) These five treatments were:\n(§2) Treatments were applied and cattle were bled via jugular venipuncture at 0, 6, and 24 hours post-dosing."}, "[2]": {"experiment": "Serum Vitamin A after nasal administration or drench (Example V)", "type": "in vivo, beef steers", "procedure": "as §1, §2"}}}
{"substance": "Vitamin E", "values": [{"measurement": "Average Serum Level - Vitamin E", "setting": "[1]; Treatment 2: positive control, 15 ml drench, 1200 IU Vitamin E in 15 ml water, 6 Hours", "value": 1.8, "unit": "micrograms/ml"}, {"measurement": "Average Serum Level - Vitamin E", "setting": "[1]; Treatment 2: positive control, 15 ml drench, 1200 IU Vitamin E in 15 ml water, 24 Hours", "value": 2.0, "unit": "micrograms/ml"}, {"measurement": "Average Serum Level - Vitamin E", "setting": "[1]; Treatment 2: positive control, 15 ml drench, 1200 IU Vitamin E in 15 ml water, time 0", "value": 1.8, "unit": "micrograms/ml"}, {"measurement": "Average Serum Level - Vitamin E", "setting": "[1]; Treatment 3: solid form vitamins in 2 ml ethanol, 1,000,000 IU A, 100,000 IU D, 1000 IU E, 1 ml per nostril, 6 Hours", "value": 2.7, "unit": "micrograms/ml"}, {"measurement": "Average Serum Level - Vitamin E", "setting": "[1]; Treatment 3: solid form vitamins in 2 ml ethanol, 1,000,000 IU A, 100,000 IU D, 1000 IU E, 1 ml per nostril, 24 Hours", "value": 2.8, "unit": "micrograms/ml"}, {"measurement": "Average Serum Level - Vitamin E", "setting": "[1]; Treatment 3: solid form vitamins in 2 ml ethanol, 1,000,000 IU A, 100,000 IU D, 1000 IU E, 1 ml per nostril, time 0", "value": 2.7, "unit": "micrograms/ml"}, {"measurement": "Average Serum Level - Vitamin E", "setting": "[1]; Treatment 4: vitamin E, A, D oils, Tween 80, nicotinic acid, Carbopol 934P, Pemulen TR2, NaOH, water, 1000 IU E, 1 ml per nostril, 6 Hours", "value": 2.5, "unit": "micrograms/ml"}, {"measurement": "Average Serum Level - Vitamin E", "setting": "[1]; Treatment 4: vitamin E, A, D oils, Tween 80, nicotinic acid, Carbopol 934P, Pemulen TR2, NaOH, water, 1000 IU E, 1 ml per nostril, 24 Hours", "value": 2.7, "unit": "micrograms/ml"}, {"measurement": "Average Serum Level - Vitamin E", "setting": "[1]; Treatment 4: vitamin E, A, D oils, Tween 80, nicotinic acid, Carbopol 934P, Pemulen TR2, NaOH, water, 1000 IU E, 1 ml per nostril, time 0", "value": 2.7, "unit": "micrograms/ml"}, {"measurement": "Average Serum Level - Vitamin E", "setting": "[1]; Treatment 5: vitamin E, A, D oils, Tween 80, Pemulen TR2, NaOH, water, 1000 IU E, 1 ml per nostril, 6 Hours", "value": 2.0, "unit": "micrograms/ml"}, {"measurement": "Average Serum Level - Vitamin E", "setting": "[1]; Treatment 5: vitamin E, A, D oils, Tween 80, Pemulen TR2, NaOH, water, 1000 IU E, 1 ml per nostril, 24 Hours", "value": 2.2, "unit": "micrograms/ml"}, {"measurement": "Average Serum Level - Vitamin E", "setting": "[1]; Treatment 5: vitamin E, A, D oils, Tween 80, Pemulen TR2, NaOH, water, 1000 IU E, 1 ml per nostril, time 0", "value": 2.1, "unit": "micrograms/ml"}, {"measurement": "course of serum level of Vitamin E", "setting": "[1]; Treatment #3, nasal (FIG. 9, curve 920)", "value": "increased from 6 hours to 24 hours post-dosing"}, {"measurement": "course of serum level of Vitamin E", "setting": "[1]; Treatment #5, nasal (FIG. 9, curve 910)", "value": "increased from 6 hours to 24 hours post-dosing"}]}
{"substance": "Vitamin A", "values": [{"measurement": "Average Serum Levels-Vitamin A", "setting": "[2]; Treatment 2: positive control, 15 ml drench, 1,000,000 IU Vitamin A in 15 ml water, 6 Hours", "value": 277, "unit": "ng/mL"}, {"measurement": "Average Serum Levels-Vitamin A", "setting": "[2]; Treatment 2: positive control, 15 ml drench, 1,000,000 IU Vitamin A in 15 ml water, 24 Hours", "value": 247, "unit": "ng/mL"}, {"measurement": "Average Serum Levels-Vitamin A", "setting": "[2]; Treatment 2: positive control, 15 ml drench, 1,000,000 IU Vitamin A in 15 ml water, time 0", "value": 230, "unit": "ng/mL"}, {"measurement": "Average Serum Levels-Vitamin A", "setting": "[2]; Treatment 3: solid form vitamins in 2 ml ethanol, 1,000,000 IU A, 100,000 IU D, 1000 IU B, 1 ml per nostril, 6 Hours", "value": 344, "unit": "ng/mL"}, {"measurement": "Average Serum Levels-Vitamin A", "setting": "[2]; Treatment 3: solid form vitamins in 2 ml ethanol, 1,000,000 IU A, 100,000 IU D, 1000 IU B, 1 ml per nostril, 24 Hours", "value": 326, "unit": "ng/mL"}, {"measurement": "Average Serum Levels-Vitamin A", "setting": "[2]; Treatment 3: solid form vitamins in 2 ml ethanol, 1,000,000 IU A, 100,000 IU D, 1000 IU B, 1 ml per nostril, time 0", "value": 302, "unit": "ng/mL"}, {"measurement": "Average Serum Levels-Vitamin A", "setting": "[2]; Treatment 4: vitamin E, A, D oils, Tween 80, nicotinic acid, Carbopol 934P, Pemulen TR2, NaOH, water, 1,000,000 IU A, 1 ml per nostril, 6 Hours", "value": 314, "unit": "ng/mL"}, {"measurement": "Average Serum Levels-Vitamin A", "setting": "[2]; Treatment 4: vitamin E, A, D oils, Tween 80, nicotinic acid, Carbopol 934P, Pemulen TR2, NaOH, water, 1,000,000 IU A, 1 ml per nostril, 24 Hours", "value": 321, "unit": "ng/mL"}, {"measurement": "Average Serum Levels-Vitamin A", "setting": "[2]; Treatment 4: vitamin E, A, D oils, Tween 80, nicotinic acid, Carbopol 934P, Pemulen TR2, NaOH, water, 1,000,000 IU A, 1 ml per nostril, time 0", "value": 321, "unit": "ng/mL"}, {"measurement": "Average Serum Levels-Vitamin A", "setting": "[2]; Treatment 5: vitamin E, A, D oils, Tween 80, Carbopol TR2, NaOH, water, 1,000,000 IU A, 1 ml per nostril, 6 Hours", "value": 349, "unit": "ng/mL"}, {"measurement": "Average Serum Levels-Vitamin A", "setting": "[2]; Treatment 5: vitamin E, A, D oils, Tween 80, Carbopol TR2, NaOH, water, 1,000,000 IU A, 1 ml per nostril, 24 Hours", "value": 353, "unit": "ng/mL"}, {"measurement": "Average Serum Levels-Vitamin A", "setting": "[2]; Treatment 5: vitamin E, A, D oils, Tween 80, Carbopol TR2, NaOH, water, 1,000,000 IU A, 1 ml per nostril, time 0", "value": 343, "unit": "ng/mL"}, {"measurement": "course of serum level of Vitamin A", "setting": "[2]; Treatment #3: nasal administration of Vitamin A/ethanol solution (FIG. 8, curve 810)", "value": "decreased from 6 to 24 hours post-dosing after an initial increase in the first 6 hours"}, {"measurement": "course of serum level of Vitamin A", "setting": "[2]; Treatment #4, nasal (FIG. 8, curve 830)", "value": "increased continuously from 6 hours to 24 hours post-dosing"}, {"measurement": "course of serum level of Vitamin A", "setting": "[2]; Treatment #5, nasal (FIG. 8, curve 820)", "value": "increased from 0 hours to 24 hours post-dosing"}]}
